These molecules were tested against C-Raf FL (full length CRAF with Y340E and Y341E activating mutations, co-expressed with h14-3-3 zeta) (Homo sapiens (Human), UniProt P04049, Y340E/Y341E) (assay: In vitro Raf activity determination, AlphaScreen p-MEK readout, c-Raf (C-Raf FL)). Details: c-Raf approximately 4 nM, ATP 1 μM, pre-incubation 60 minutes, reaction 1 hour.
Format: biochemical
Outline: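 Full-length C-Raf (~4 nM) pre-incubated 60 min at room temperature with compound and kinase-dead biotinylated MEK1 (~10 nM) in Tris pH 7.5, 15 mM MgCl2, BSA, DTT. Reaction started with 1 μM ATP and run 1 h at room temperature. Phospho-MEK detected by AlphaScreen with anti-p-MEK antibody.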

Sequence of C-Raf FL (full length CRAF with Y340E and Y341E activating mutations, co-expressed with h14-3-3 zeta) (P04049 whole entry Y340E/Y341E): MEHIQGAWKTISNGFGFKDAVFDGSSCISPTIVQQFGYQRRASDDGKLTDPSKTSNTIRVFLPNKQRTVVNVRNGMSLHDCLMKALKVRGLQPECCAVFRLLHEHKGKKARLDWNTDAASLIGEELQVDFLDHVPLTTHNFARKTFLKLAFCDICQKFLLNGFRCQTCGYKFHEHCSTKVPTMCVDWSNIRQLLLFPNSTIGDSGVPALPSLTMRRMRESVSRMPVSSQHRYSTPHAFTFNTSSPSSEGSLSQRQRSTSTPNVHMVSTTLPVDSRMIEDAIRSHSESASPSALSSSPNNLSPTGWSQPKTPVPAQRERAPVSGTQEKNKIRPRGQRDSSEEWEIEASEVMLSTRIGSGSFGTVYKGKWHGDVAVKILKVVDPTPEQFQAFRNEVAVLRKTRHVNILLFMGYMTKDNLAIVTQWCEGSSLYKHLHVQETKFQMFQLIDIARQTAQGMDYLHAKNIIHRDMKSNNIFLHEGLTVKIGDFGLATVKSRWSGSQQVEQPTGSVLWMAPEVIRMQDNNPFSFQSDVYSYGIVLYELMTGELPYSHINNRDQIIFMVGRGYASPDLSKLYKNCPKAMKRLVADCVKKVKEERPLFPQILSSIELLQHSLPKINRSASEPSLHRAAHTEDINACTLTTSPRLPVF
Sequence of C-Raf FL (full length CRAF with Y340E and Y341E activating mutations, co-expressed with h14-3-3 zeta) (P63104 whole entry partner): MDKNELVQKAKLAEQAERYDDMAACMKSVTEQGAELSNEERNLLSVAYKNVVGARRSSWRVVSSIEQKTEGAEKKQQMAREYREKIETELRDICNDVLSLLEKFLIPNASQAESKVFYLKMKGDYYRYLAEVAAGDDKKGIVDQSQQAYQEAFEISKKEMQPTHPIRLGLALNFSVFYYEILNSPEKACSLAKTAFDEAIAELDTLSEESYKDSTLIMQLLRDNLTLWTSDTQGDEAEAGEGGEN

Structure (SMILES) | IC50
Cc1ccc(NC(=O)c2ccnc(C(C)(F)F)c2)cc1-c1ccc2c(c1)N1CCOCC1C(CO)(CO)C2 (racemic) [Example 50, (rac)-N-(3-(5,5-bis(hydroxymethyl)-1,2,4,4a,5,6-hexahydro-[1,4]oxazino[4,3-a]quinolin-9-yl)-4-methylphenyl)-2-(1,1-difluoroethyl)isonicotinamide] | 0.013 nM
Cc1ccc(NC(=O)c2ccnc(C(F)(F)F)c2F)cc1-c1cnc2c(c1)N1CCOC[C@H]1C[C@H]2OCCO [Example 510, 3-fluoro-N-(3-((4aR,6R)-6-(2-hydroxyethoxy)-1,2,4,4a,5,6-hexahydro-[1,4]oxazino[4,3-a][1,5]naphthyridin-9-yl)-4-methylphenyl)-2-(trifluoromethyl)iso-nicotinamide] | 0.1 nM
Cc1ncc(NC(=O)c2ccnc(C(C)(F)F)c2)cc1-c1ccc2c(c1)N1CCOC[C@H]1[C@](F)(CF)C2 [Example 467] | 1.9 nM
Cc1ccc(NC(=O)c2ccnc(C(F)(F)F)c2)cc1-c1cnc2c(c1)N1CCOC[C@H]1C[C@@]2(C)O (racemic) [Example 39, (rac)-(trans)-N-(3-(6-hydroxy-6-methyl-1,2,4,4a,5,6-hexahydro-[1,4]oxazino[4,3-a][1,5]naphthyridin-9-yl)-4-methylphenyl)-2-(trifluoromethyl)isonicotinamide] | 0.0023 nM
CCN1C(=O)CC2COCCN2c2cc(-c3cc(NC(=O)c4ccnc(C(F)(F)F)c4)ccc3C)cnc21 (racemic) [Example 128, rac-N-(3-(7-Ethyl-6-oxo-1,2,4a,5,6,7-hexahydro-4H-[1,4]oxazino[4,3-d]pyrido[2,3-b][1,4]diazepin-10-yl)-4-methylphenyl)-2-(trifluoromethyl)isonicotinamide] | 0.023 nM
CCN1C(=O)C[C@H]2COCCN2c2cc(-c3cc(NC(=O)c4ccnc(C(C)(F)F)c4)ccc3C)cnc21 [Example 127, (S)-2-(1,1-difluoroethyl)-N-(3-(7-ethyl-6-oxo-1,2,4a,5,6,7-hexahydro-4H-[1,4]oxazino[4,3-d]pyrido[2,3-b][1,4]diazepin-10-yl)-4-methylphenyl)isonicotinamide] | 0.048 nM
Cc1ncc(NC(=O)c2cccc(C(F)(F)F)c2)cc1-c1cnc2c(c1)N1CCOC[C@@H]1[C@H](CO)C2 (racemic) [Example 119, rac-trans-N-(5-(5-(Hydroxymethyl)-1,2,4,4a,5,6-hexahydro-[1,4]oxazino[4,3-a][1,5]naphthyridin-9-yl)-6-methylpyridin-3-yl)-3-(trifluoromethyl)benzamide] | 0.01 nM
CCN1C(=O)[C@@H]2COCC[C@H]2c2cc(-c3cc(NC(=O)c4ccnc(C(C)(C)F)c4)cnc3C)cnc21 [Example 313, N-(5-((4aS, 10bR)-6-ethyl-5-oxo-1,4,4a,5,6,10b-hexahydro-2H-pyrano[3,4-c][1,8]naphthyridin-9-yl)-6-methylpyridin-3-yl)-2-(2-fluoropropan-2-yl)isonicotinamide] | 0.5 nM
CCN1C(=O)[C@@H]2COCC[C@H]2c2cc(-c3cc(NC(=O)c4ccnc(C(F)(F)F)c4)cnc3C)cnc21 [Example 252, N-(5-((4aS, 10bR)-6-ethyl-5-oxo-2,4,4a,5,6,10b-hexahydro-1H-pyrano[3,4-c][1,8]naphthyridin-9-yl)-6-methylpyridin-3-yl)-2-(trifluoromethyl) isonicotinamide] | 0.1 nM
Cc1ncc(NC(=O)c2cccc(C(F)(F)F)c2)cc1-c1ccc2c(c1)N1CCOCC1CC2O (racemic) [Example 9, (rac)-N-(5-(6-hydroxy-1,2,4,4a,5,6-hexahydro-[1,4]oxazino[4,3-a]quinolin-9-yl)-6-methylpyridin-3-yl)-3-(trifluoromethyl)benzamide] | 0.051 nM
Cc1ccc(NC(=O)c2ccnc(C(C)(C)F)c2)cc1-c1ccc2c(c1)N1CCOCC1CC2O (racemic) [Example 7, (rac)-2-(2-fluoropropan-2-yl)-N-(3-(6-hydroxy-1,2,4,4a,5,6-hexahydro-[1,4]oxazino[4,3-a]quinolin-9-yl)-4-methylphenyl)isonicotinamide] | 0.033 nM
Cc1ccc(NC(=O)c2ccnc(C(C)(F)F)c2)cc1-c1cnc2c(c1)N1CCOC[C@H]1C(C)(C)[C@H]2O [Example 161, 2-(1,1-difluoroethyl)-N-(3-((4aR,6R)-6-hydroxy-5,5-dimethyl-1,2,4,4a,5,6-hexahydro-[1,4]oxazino[4,3-a][1,5]naphthyridin-9-yl)-4-methylphenyl)isonicotinamide] | 0.08 nM
Cc1ccc(NC(=O)c2ccnc(C(C)(F)F)c2)cc1-c1ccc2c(c1)N1CCOC[C@H]1[C@@](F)(CO)C2 [Example 371, 2-(1,1-difluoroethyl)-N-(3-((4aS,5R)-5-fluoro-5-(hydroxymethyl)-1,2,4,4a,5,6-hexahydro-[1,4]oxazino[4,3-a]quinolin-9-yl)-4-methylphenyl)isonicotinamide] | 0.2 nM
Cc1ccc(NC(=O)c2ccnc(C(C)(F)F)c2)cc1-c1ccc2c(c1)N1CCOC[C@@H]1[C@@H](C(=O)O)C2 (racemic) [Example 100, (rac)-(cis)-9-(5-(2-(1,1-difluoroethyl)isonicotinamido)-2-methylphenyl)-1,2,4,4a,5,6-hexahydro-[1,4]oxazino[4,3-a]quinoline-5-carboxylic Acid] | 0.037 nM
Cc1ccc(NC(=O)c2ccnc(C(F)(F)F)c2)cc1-c1cnc2c(c1)N1CCOC[C@H]1C(F)(F)[C@H]2O [Example 167, N-(3-((4aS,6S)-5,5-difluoro-6-hydroxy-1,2,4,4a,5,6-hexahydro-[1,4]oxazino[4,3-a][1,5]naphthyridin-9-yl)-4-methylphenyl)-2-(trifluoromethyl)isonicotinamide] | 0.077 nM
CCN1C(=O)[C@@H]2[C@H]3COC[C@H]3[C@@H]2c2cc(-c3cc(NC(=O)c4cncc(C(F)(F)F)c4)ccc3C)cnc21 [Example 274, N-(3-((6aS, 6bS, 9aS, 9bS)-5-ethyl-6-oxo-5,6,6a,6b,7,9,9a,9b-octahydrofuro[3′,4′: 3,4]cyclobuta[1,2-c][1,8]naphthyridin-2-yl)-4-methylphenyl)-5-(trifluoromethyl) nicotinamide] | 0.5 nM
CCN1C(=O)CC2CCOCCN2c2cc(-c3cc(NC(=O)c4cccc(C(F)(F)F)c4)cnc3C)cnc21 (centres unmarked) [Example 315, N-(5-(8-ethyl-7-oxo-1,2,4,5,5a,6,7,8-octahydropyrido[3′, 2′:2,3][1,4]diazepino [1,7-d][1,4]oxazepin-11-yl)-6-methylpyridin-3-yl)-3-(trifluoromethyl) benzamide] | 1.7 nM
Cc1ccc(NC(=O)c2ccnc(C(C)(F)F)c2)cc1-c1cnc2c(c1)N1CCOC[C@H]1[C@@H](C(C)(C)O)C2 [Example 453, 2-(1,1-difluoroethyl)-N-(3-((4aR,5S)-5-(2-hydroxypropan-2-yl)-1,2,4,4a,5,6-hexahydro-[1,4]oxazino[4,3-a][1,5]naphthyridin-9-yl)-4-methylphenyl) isonicotinamide] | 0.7 nM
Cc1ccc(NC(=O)c2ccnc(C(C)(F)F)c2)cc1-c1cc2c(nn1)OC(C)(C)[C@H]1COCCN21 [Example 138, (R)-2-(1,1-Difluoroethyl)-N-(3-(6,6-dimethyl-6a,7,9,10-tetrahydro-6H-[1,4]oxazino[4,3-d]pyridazino[3,4-b][1,4]oxazin-2-yl)-4-methylphenyl)isonicotinamide] | 0.59 nM
CCN1C(=O)C2(F)COCC[C@@H]2c2cc(-c3cc(NC(=O)c4ccnc(C(C)(F)F)c4)ccc3C)cnc21 (stereo partly drawn) [Example 338, 2-(1,1-difluoroethyl)-N-(3-((10bR)-6-ethyl-4a-fluoro-5-oxo-2,4,4a,5,6,10b-hexahydro-1H-pyrano[3,4-c][1,8]naphthyridin-9-yl)-4-methylphenyl)isonicotinamide] | 0.5 nM
Cc1ccc(NC(=O)c2ccnc(C(F)(F)F)c2F)cc1-c1ccc2c(c1)N1CCOC[C@H]1[C@@](F)(CO)C2 [Example 395, 3-fluoro-N-(3-((4aS,5R)-5-fluoro-5-(hydroxymethyl)-1,2,4,4a,5,6-hexahydro-[1,4]oxazino[4,3-a]quinolin-9-yl)-4-methylphenyl)-2-(trifluoromethyl)isonicotinamide] | 0.2 nM
CCN1C[C@H]2COCCN2c2cc(-c3cc(NC(=O)c4ccnc(C(F)(F)F)c4F)ccc3C)cnc2C1=O [Example 499, (S)-N-(3-(6-ethyl-7-oxo-1,2,4a,5,6,7-hexahydro-4H-[1,4]oxazino[4,3-a]pyrido[2,3-f][1,4]diazepin-10-yl)-4-methyplhenyl)-3-fluoro-2-(trifluoromethyl)iso-nicotinamide] | 0.4 nM
Cc1ccc(NC(=O)c2ccnc(C(F)(F)F)c2)cc1-c1cnc2c(c1)N1CCOC[C@H]1C1(COC1)C2 [Example 154, (R)-N-(4-methyl-3-(1′,2′,4′,4a′-tetrahydro-6′H-spiro[oxetane-3,5′-[1,4]oxazino[4,3-a][1,5]naphthyridin]-9′-yl)phenyl)-2-(trifluoromethyl)isonicotinamide] | 0.063 nM
Cc1ccc(NC(=O)c2ccnc(C(C)(C)C#N)c2)cc1-c1ccc2c(c1)N1CCOCC1CC2O (racemic) [Example 8, (rac)-2-(2-cyanopropan-2-yl)-N-(3-(6-hydroxy-1,2,4,4a,5,6-hexahydro-[1,4]oxazino[4,3-a]quinolin-9-yl)-4-methylphenyl)isonicotinamide] | 0.19 nM
Cc1ccc(NC(=O)c2ccnc(C(F)(F)F)c2)cc1-c1cc2c(nn1)[C@H](O)C[C@@H]1COCCN21 (racemic) [Example 48, (rac)-(trans)-N-(3-(5-hydroxy-5,6,6a,7,9,10-hexahydropyridazino[3′,4′:5,6]pyrido[2,1-c][1,4]oxazin-2-yl)-4-methylphenyl)-2-(trifluoromethyl)isonicotinamide] | 0.049 nM
CCN1Cc2nncn2-c2cc(-c3cc(NC(=O)c4ccnc(C(F)(F)F)c4)ccc3C)cnc2C1=O [Example 241, N-(3-(5-ethyl-6-oxo-5,6-dihydro-4H-pyrido[2,3-f][1,2,4]-triazolo[4,3-a][1,4]diazepin-9-yl)-4-methylphenyl)-2-(trifluoromethyl) isonicotinamide] | 9.5 nM

From patent publication US10377770B2 (Novartis AG, priority 2015, dated 2019)
